# Columns and labels:
# [1] = DRUGMATRIX: ATPase, Na+/K+ enzyme inhibition (substrate: ATP); type: tissue-based, Sus scrofa, Heart; conditions: Not Active = under 50% inhibition at 10 µM
# [2] = target: T1, Vasoactive intestinal polypeptide receptor 1 (Homo sapiens, UniProt P32241); type: cell membranes, Membrane; conditions: ht-29; note: in other assays of this panel Not Active means under 50% inhibition at 10 µM
# T1 sequence (P32241 whole entry): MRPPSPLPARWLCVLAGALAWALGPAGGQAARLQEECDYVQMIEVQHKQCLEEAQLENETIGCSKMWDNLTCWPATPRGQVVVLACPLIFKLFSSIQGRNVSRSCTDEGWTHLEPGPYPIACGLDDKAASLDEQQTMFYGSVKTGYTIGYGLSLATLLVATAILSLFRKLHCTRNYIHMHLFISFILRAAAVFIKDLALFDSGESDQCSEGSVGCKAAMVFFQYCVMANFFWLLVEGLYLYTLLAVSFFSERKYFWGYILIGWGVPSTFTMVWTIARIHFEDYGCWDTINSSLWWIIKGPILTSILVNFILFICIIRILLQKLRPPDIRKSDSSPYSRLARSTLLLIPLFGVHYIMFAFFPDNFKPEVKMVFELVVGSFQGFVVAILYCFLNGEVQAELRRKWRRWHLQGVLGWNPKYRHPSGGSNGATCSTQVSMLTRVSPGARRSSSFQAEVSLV
# Nitric oxide synthase 1 = Nitric oxide synthase 1 (Rattus norvegicus, UniProt P29476); type: tissue-based, Cerebellum; note: in other assays of this panel Not Active means under 50% inhibition at 10 µM
# Progesterone receptor = target: T2, Progesterone receptor (Bos taurus, UniProt Q690N0); experiment: DRUGMATRIX: Progesterone radioligand binding (ligand: [3H] R-5020); type: tissue-based, Uterus; conditions: Not Active = under 50% inhibition at 10 µM; for Ki: read-out: Ki
# T2 sequence (Q690N0 whole entry): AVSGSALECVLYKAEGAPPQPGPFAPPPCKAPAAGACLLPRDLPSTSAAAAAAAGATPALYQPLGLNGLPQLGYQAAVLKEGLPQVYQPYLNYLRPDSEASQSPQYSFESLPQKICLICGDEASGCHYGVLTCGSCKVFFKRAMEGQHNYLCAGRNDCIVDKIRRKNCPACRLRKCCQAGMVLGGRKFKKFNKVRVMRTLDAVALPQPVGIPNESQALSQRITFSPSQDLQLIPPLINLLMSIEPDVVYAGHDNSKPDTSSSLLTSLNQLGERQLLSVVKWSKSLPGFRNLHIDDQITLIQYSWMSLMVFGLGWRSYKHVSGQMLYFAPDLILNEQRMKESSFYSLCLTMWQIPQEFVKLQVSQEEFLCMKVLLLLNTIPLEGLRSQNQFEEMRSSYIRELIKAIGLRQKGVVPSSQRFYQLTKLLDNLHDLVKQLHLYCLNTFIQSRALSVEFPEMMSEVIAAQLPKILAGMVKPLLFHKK
# [3] = target: T3, Receptor-type tyrosine-protein phosphatase C (Homo sapiens, UniProt P08575); set-up: species or system Escherichia coli;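 note: inhibition of CD45 enzyme activity measured using DiFMUP as substrate; in other assays of this panel Not Active means under 50% inhibition at 10 µM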
# T3 sequence (P08575 whole entry): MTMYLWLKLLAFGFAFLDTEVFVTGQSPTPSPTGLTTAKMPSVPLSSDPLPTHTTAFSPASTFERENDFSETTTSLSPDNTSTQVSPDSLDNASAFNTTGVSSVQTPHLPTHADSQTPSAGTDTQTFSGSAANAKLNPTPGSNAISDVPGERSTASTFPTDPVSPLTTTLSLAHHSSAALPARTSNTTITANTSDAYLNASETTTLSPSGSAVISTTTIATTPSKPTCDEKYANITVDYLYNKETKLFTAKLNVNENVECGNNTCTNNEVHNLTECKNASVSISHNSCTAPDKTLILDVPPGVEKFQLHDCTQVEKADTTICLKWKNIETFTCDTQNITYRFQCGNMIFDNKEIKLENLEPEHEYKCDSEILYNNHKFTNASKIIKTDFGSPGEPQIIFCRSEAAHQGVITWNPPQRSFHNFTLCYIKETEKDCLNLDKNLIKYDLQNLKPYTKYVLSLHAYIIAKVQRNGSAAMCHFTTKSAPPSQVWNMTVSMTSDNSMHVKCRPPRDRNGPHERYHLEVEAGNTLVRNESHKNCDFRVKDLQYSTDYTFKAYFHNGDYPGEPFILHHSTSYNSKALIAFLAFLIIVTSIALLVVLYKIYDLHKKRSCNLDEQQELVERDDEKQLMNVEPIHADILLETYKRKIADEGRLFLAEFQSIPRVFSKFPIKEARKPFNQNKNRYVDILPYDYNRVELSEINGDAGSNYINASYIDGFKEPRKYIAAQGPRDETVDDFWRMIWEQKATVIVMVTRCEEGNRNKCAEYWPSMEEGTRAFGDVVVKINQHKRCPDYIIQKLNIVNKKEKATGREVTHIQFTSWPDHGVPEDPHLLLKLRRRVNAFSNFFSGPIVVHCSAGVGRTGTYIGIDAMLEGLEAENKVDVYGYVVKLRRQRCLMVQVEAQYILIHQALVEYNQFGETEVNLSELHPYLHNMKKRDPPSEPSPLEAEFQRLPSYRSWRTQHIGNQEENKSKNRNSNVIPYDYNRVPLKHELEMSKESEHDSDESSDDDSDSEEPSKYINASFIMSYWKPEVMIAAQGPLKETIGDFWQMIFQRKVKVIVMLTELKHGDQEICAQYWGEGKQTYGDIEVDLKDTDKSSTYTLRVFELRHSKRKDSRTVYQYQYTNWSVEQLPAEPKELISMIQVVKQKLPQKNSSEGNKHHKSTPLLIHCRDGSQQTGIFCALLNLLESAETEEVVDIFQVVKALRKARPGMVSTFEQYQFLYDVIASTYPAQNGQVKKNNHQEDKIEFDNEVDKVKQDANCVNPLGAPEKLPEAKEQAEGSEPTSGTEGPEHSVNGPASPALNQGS
# Cytochrome P450 1A2 = target: T4, Cytochrome P450 1A2 (Homo sapiens, UniProt P05177); conditions: bti-tn-5b1-4; note: in other assays of this panel Not Active means under 50% inhibition at 10 µM
# T4 sequence (P05177 whole entry): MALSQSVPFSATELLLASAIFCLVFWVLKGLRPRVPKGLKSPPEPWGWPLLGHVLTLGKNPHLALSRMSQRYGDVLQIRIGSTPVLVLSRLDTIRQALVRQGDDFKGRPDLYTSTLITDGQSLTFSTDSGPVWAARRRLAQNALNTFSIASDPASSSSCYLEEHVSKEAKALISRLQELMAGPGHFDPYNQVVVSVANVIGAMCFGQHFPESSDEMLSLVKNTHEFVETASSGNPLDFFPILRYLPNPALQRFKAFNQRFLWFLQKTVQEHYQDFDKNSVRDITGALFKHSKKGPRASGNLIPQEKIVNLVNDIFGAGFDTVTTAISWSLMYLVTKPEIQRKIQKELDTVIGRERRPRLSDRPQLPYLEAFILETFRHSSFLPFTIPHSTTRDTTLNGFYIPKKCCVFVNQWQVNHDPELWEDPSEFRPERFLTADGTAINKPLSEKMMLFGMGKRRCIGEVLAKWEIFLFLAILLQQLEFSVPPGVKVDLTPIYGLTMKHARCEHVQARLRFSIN
# Sequence of Nitric oxide synthase 1 (P29476 whole entry): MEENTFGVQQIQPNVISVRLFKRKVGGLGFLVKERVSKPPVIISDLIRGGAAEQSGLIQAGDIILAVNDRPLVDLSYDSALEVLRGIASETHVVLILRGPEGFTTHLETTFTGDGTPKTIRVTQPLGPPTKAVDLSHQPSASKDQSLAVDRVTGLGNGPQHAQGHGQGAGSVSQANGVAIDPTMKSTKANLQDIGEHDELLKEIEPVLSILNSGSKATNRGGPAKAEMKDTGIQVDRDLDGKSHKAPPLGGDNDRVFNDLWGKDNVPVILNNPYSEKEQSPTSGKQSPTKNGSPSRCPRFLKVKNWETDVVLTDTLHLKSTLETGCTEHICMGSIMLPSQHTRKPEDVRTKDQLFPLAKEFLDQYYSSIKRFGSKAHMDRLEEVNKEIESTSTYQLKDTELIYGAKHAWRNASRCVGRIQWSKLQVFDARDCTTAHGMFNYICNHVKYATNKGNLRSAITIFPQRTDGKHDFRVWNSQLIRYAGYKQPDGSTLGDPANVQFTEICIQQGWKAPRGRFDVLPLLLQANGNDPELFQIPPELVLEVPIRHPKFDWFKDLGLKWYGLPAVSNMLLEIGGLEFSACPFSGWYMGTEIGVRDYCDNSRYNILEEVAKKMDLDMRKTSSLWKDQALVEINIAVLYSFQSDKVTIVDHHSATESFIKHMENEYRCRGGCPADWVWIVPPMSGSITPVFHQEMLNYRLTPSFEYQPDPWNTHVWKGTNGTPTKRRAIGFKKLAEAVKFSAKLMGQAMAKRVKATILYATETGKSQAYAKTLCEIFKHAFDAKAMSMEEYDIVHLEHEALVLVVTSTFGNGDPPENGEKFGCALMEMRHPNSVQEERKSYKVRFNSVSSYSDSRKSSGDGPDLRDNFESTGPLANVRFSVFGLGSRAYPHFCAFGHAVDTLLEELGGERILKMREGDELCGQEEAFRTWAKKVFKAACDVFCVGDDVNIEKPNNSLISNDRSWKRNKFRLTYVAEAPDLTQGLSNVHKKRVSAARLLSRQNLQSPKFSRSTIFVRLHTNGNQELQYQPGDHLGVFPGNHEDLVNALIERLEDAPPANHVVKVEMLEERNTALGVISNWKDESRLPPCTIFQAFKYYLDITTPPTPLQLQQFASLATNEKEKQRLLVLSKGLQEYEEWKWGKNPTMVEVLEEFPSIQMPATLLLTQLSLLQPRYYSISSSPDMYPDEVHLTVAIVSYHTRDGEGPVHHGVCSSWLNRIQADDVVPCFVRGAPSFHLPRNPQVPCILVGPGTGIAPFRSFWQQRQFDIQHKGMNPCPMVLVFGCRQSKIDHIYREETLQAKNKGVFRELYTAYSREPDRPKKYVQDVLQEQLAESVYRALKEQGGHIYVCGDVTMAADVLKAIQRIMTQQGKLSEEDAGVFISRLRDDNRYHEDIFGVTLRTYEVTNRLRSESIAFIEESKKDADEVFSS
smiles,measurement,setting,value
CC(C)c1c(C(=O)Nc2ccccc2)c(-c2ccccc2)c(-c2ccc(F)cc2)n1CC[C@@H](O)C[C@@H](O)CC(=O)O [ATORVASTATIN],IC50,[1],Not Active
same,Ki,[1],Not Active
same,IC50,[2],Not Active
same,IC50,Nitric oxide synthase 1,Not Active
same,IC50,Progesterone receptor,Not Active
same,IC50,[3],Not Active
C#C[C@]1(O)CC[C@H]2[C@@H]3CCC4=CC(=O)CC[C@]4(C)[C@H]3CC[C@@]21C [ETHISTERONE],IC50,[1],Not Active
same,Ki,[1],Not Active
same,IC50,[2],Not Active
same,IC50,Nitric oxide synthase 1,Not Active
same,IC50,Progesterone receptor; read-out: IC50,59 nM
same,Ki,Progesterone receptor,7.75 nM
same,IC50,[3],Not Active
CC(O)(P(=O)(O)O)P(=O)(O)O [ETIDRONIC ACID],IC50,[1],Not Active
same,Ki,[1],Not Active
same,IC50,[2],Not Active
same,IC50,Nitric oxide synthase 1,Not Active
same,IC50,[3],Not Active
same,IC50,Cytochrome P450 1A2,Not Active
same,Ki,Cytochrome P450 1A2,Not Active
CC(C)(C(=O)O)c1ccc(C(O)CCCN2CCC(C(O)(c3ccccc3)c3ccccc3)CC2)cc1 (configuration not stated) [FEXOFENADINE],IC50,[1],Not Active
same,Ki,[1],Not Active
same,IC50,[2],Not Active
same,IC50,Nitric oxide synthase 1,Not Active
same,IC50,Progesterone receptor,Not Active
same,IC50,[3],Not Active
CC(=O)OCC(=O)[C@@]12OC(C)(C)O[C@@H]1C[C@H]1[C@@H]3C[C@H](F)C4=CC(=O)C=C[C@]4(C)[C@@]3(F)[C@@H](O)C[C@@]12C [FLUOCINONIDE],IC50,[1],Not Active
same,Ki,[1],Not Active
same,IC50,[2],Not Active
same,IC50,Nitric oxide synthase 1,Not Active
same,IC50,Progesterone receptor; read-out: IC50,22 nM
same,Ki,Progesterone receptor,2.9 nM
same,IC50,[3],Not Active
N[C@@H](Cn1ccc(=O)c(O)c1)C(=O)O [L-MIMOSINE],IC50,[1],Not Active
same,Ki,[1],Not Active
same,IC50,[2],Not Active
same,IC50,Nitric oxide synthase 1,Not Active
same,IC50,Progesterone receptor,Not Active
same,IC50,[3],Not Active
CN(C)C(=N)NC(=N)N [METFORMIN],IC50,[1],Not Active
same,Ki,[1],Not Active
same,IC50,[2],Not Active
same,IC50,Nitric oxide synthase 1,Not Active
same,IC50,Progesterone receptor,Not Active
same,IC50,[3],Not Active
CC(C)(C)NCC(O)COc1cccc2c1CC(O)C(O)C2 (configuration not stated) [NADOLOL],IC50,[1],Not Active
same,Ki,[1],Not Active
same,IC50,[2],Not Active
same,IC50,Nitric oxide synthase 1,Not Active
same,IC50,Progesterone receptor,Not Active
same,IC50,[3],Not Active
C[C@@H]1C/C=C/C=C/C=C/C=C/[C@H](O[C@@H]2O[C@H](C)[C@@H](O)[C@H](N)[C@@H]2O)C[C@@H]2O[C@](O)(C[C@@H](O)C[C@H]3O[C@@H]3/C=C/C(=O)O1)C[C@H](O)[C@H]2C(=O)O [NATAMYCIN],IC50,[1],Not Active
same,Ki,[1],Not Active
same,IC50,[2],Not Active
same,IC50,Nitric oxide synthase 1,Not Active
same,IC50,Progesterone receptor,Not Active
same,IC50,[3],Not Active
C[C@@H]1O[C@@H](O[C@H]2C[C@@H](O)[C@]3(CO)[C@H]4[C@H](O)C[C@]5(C)[C@@H](C6=CC(=O)OC6)CC[C@]5(O)[C@@H]4CC[C@]3(O)C2)[C@H](O)[C@H](O)[C@H]1O [OUABAIN],IC50,[1]; read-out: IC50,678 nM
same,IC50,[2],Not Active
same,IC50,Nitric oxide synthase 1,Not Active
same,IC50,Progesterone receptor,Not Active
same,IC50,[3],Not Active
